{"source": "patent US9198902B2", "about": "“1,4-dihydropyridine-3,5-dicarboxylate derivatives and preparation and use thereof” (Xuanzhu Pharma Co., Ltd., priority 2011, dated 2015)", "key": {"[1]": {"test_system": "T-type calcium ion channels", "assay": "T-type calcium ion channel inhibition, whole cell patch-clamp (electrophysiological method)", "assay_type": "cell-based", "conditions": "cerebral cortex nerve cells of suckling mice, room temperature", "source_text": "(§1) 2. Test for L- and T-Type Calcium Ion Channel Inhibitors\n(§2) This experiment was assigned to HD Biosciences Corporation (Shanghai) and conducted with an electrophysiological method.\nIt was done with reference to the method as disclosed by Jung-Ha Lee, et. al., “Identification of T-Type α1H Ca^2+ Channels (Cav3.2) in Major Pelvic Ganglion Neurons”.\n(§3) Test samples were weighed accurately and diluted in a 3-fold stepwise dilution so that the final concentrations were as follows:\nT-type test: Cerebral cortex nerve cells were separated from suckling mice, and used in the experiment after 7 days of cultivation. The ionic current of a single cell was recorded by applying the whole cell patch-clamp technique at room temperature, wherein the clamp current was −90 mV, and the pulse interval was 10 s. The inward current (the activiation was started from −20 mV) is the T-type calcium current (ICa,T).\n(§4) The electrode inner liquid (mM): CsCl 120, TEA-Cl 20, CaCl2 1, EGTA-CsOH 11, Hepes 10, Mg-ATP 5, pH7.3;"}, "Human Cav3.2": {"molecular_target": "Human Cav3.2 (Homo sapiens, UniProt O95180)", "sequence (O95180 whole entry)": "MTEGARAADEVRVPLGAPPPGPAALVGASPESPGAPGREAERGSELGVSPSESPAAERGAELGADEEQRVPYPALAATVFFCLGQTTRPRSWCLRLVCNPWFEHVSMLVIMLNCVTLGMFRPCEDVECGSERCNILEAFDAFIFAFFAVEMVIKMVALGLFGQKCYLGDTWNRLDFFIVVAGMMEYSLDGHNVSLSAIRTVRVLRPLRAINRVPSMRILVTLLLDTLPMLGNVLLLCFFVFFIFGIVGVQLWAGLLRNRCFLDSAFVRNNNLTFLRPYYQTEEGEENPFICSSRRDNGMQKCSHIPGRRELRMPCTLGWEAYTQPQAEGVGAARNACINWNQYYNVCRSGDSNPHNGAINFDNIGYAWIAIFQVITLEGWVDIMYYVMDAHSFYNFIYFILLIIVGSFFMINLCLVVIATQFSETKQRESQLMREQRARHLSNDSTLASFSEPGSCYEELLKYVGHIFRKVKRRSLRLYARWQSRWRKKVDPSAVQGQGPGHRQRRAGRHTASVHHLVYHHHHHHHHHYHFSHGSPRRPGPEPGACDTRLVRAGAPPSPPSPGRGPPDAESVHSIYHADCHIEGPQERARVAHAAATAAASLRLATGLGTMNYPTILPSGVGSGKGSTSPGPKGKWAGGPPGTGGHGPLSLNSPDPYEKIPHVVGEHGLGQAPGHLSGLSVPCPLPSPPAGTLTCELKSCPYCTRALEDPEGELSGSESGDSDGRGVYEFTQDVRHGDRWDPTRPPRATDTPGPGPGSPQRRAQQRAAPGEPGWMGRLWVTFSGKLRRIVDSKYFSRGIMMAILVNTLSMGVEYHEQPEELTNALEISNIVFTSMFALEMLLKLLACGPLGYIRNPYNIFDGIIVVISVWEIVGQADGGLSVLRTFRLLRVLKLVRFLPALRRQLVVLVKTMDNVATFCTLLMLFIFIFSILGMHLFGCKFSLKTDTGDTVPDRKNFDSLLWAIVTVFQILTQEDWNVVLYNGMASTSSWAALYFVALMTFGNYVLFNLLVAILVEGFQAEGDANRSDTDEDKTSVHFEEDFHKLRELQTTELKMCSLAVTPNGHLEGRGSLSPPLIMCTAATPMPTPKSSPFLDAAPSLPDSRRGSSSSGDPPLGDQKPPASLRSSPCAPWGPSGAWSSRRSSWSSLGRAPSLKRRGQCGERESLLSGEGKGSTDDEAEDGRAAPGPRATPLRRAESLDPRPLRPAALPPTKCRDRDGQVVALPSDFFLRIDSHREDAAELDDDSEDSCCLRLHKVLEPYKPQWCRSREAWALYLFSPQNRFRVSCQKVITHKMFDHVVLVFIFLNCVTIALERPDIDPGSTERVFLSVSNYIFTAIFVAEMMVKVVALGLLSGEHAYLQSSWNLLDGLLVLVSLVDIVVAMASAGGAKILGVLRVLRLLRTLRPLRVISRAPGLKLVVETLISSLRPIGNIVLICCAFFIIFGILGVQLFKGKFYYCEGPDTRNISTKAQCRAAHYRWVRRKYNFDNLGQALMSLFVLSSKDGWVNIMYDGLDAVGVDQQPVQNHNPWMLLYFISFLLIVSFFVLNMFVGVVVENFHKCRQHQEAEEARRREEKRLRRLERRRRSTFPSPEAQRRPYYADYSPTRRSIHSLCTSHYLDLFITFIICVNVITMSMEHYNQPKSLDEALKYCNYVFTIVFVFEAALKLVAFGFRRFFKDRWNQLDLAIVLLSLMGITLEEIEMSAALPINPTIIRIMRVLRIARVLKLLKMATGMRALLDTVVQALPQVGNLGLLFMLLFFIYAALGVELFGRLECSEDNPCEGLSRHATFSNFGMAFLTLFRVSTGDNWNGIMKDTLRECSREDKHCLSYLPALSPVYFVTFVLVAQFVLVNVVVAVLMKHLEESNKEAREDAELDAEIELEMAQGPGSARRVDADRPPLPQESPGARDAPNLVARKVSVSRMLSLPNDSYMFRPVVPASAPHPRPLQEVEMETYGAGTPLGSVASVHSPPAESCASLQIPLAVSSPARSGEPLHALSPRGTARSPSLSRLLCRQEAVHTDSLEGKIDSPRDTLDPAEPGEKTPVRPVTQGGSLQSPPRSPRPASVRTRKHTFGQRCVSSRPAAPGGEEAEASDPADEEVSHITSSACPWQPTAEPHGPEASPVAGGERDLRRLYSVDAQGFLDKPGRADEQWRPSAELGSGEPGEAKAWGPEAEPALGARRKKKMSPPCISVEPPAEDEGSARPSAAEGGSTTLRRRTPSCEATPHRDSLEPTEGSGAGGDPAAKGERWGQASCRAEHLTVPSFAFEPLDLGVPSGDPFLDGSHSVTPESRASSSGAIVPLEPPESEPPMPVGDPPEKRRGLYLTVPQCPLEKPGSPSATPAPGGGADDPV", "assay": "T-type calcium ion channel inhibition, FLIPR method", "assay_type": "cell-based", "conditions": "Human Cav3.2 in stable HEK-293 cells, FLIPR Calcium 4 No-Wash kit", "method": "T-type tests for Compound 19 and Compound 20 were assigned to Chan Test Corporation, and conducted according to the FLIPR experimental procedure as follows.\nIt was done with reference to the method disclosed on page 48 of WO 2009/056934 A1.\nSamples were weighed accurately and diluted in a 3-fold stepwise dilution so that the final concentrations were as follows: 100 μM, 30 μM, 10 μM, 3 μM, 1 μM, 0.3 μM, 0.1 μM, 0.03 μM, 0.01 μM, 0.003 μM.\nT-type test: Human Cav3.2 was cloned in stable HEK-293 cells, and then the operation was conducted with FLIPR Calcium 4 No-Wash kit. The cell medium was removed. To an HEPES solution free of calcium ion was added 20 μL dye to dye for 30 minutes at a temperature of 37° C. This buffer free of calcium ion included NaCl, 137 mM; KCl, 0.5 mM; MgCl2 mM, 1 mM; HEPES, 10 mM; glucose, 10 mM. The pH value was adjusted to 7.4 with NaOH. After 30 minutes, the buffer was placed at room temperature for 30 minutes. Then 5 μL of compound to be tested, solvent or blank control were added. The compound was formulated with a buffer containing calcium ion, said buffer including KCl, 135 mM; CaCl2, 10.8 mM; MgCl2, 1 mM; HEPES, 10 mM; glucose, 10 mM. The collected fluorescence values were analyzed and the inhibition ratios were calculated."}, "[2]": {"molecular_target": "L-type calcium ion channels (Cavia porcellus, UniProt O35505)", "sequence (O35505 whole entry)": "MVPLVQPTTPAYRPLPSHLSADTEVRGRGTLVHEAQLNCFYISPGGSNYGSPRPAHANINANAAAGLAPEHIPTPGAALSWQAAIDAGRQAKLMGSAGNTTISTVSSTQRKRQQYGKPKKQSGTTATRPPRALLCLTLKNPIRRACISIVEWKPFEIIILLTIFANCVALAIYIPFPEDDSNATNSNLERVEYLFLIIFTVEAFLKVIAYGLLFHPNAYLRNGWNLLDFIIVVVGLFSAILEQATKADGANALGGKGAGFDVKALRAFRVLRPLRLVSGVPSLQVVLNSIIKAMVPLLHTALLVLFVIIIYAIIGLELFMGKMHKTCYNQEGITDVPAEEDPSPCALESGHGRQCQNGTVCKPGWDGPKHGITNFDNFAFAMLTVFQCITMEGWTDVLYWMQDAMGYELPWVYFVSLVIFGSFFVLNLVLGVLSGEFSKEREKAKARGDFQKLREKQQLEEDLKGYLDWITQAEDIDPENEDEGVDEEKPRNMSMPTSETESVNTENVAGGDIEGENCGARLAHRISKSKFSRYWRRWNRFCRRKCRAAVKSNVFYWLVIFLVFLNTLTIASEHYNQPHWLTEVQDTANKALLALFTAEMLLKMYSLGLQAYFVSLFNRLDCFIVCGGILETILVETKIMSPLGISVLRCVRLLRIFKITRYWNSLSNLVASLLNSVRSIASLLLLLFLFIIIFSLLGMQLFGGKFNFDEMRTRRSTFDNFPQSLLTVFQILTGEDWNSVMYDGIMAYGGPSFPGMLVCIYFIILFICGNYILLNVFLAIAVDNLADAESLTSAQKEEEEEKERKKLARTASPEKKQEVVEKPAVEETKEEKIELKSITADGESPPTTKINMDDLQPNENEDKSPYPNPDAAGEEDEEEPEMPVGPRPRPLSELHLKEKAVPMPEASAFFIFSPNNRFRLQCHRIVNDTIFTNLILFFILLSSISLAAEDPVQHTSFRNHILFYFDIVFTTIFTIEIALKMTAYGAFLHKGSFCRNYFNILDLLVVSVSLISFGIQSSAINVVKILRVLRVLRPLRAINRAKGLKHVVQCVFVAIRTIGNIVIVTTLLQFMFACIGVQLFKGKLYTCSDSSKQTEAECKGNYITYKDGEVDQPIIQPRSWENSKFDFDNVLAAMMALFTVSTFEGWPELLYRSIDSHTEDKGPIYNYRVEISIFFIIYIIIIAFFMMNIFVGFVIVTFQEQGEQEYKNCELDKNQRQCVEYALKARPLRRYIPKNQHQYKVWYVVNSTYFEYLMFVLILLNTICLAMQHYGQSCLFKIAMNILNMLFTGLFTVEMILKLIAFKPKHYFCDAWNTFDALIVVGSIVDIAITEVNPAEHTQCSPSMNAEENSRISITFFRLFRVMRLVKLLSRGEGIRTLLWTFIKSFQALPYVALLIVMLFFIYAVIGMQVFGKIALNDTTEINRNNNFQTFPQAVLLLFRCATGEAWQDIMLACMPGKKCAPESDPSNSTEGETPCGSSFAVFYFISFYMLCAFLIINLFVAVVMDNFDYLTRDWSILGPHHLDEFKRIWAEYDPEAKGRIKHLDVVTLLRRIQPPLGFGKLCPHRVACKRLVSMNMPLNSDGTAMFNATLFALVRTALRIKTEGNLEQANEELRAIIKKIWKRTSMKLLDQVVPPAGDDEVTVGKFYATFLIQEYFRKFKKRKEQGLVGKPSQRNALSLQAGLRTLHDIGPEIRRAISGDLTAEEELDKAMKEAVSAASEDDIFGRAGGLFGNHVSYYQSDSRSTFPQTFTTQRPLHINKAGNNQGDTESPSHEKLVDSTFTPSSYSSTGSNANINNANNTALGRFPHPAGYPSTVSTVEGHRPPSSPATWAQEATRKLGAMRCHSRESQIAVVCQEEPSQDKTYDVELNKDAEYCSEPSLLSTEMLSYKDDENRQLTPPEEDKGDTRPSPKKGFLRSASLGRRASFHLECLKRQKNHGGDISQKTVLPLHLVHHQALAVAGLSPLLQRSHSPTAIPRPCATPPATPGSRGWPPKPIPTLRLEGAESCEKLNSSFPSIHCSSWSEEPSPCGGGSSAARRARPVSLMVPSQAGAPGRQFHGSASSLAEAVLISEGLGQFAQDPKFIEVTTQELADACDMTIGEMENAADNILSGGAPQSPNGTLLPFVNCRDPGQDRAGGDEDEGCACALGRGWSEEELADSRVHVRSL", "assay": "L-type calcium ion channel inhibition, whole cell patch-clamp (electrophysiological method)", "assay_type": "cell-based", "conditions": "left ventricle muscle cells of guinea pigs, room temperature", "source_text": "as §1, §2\nIt was done with reference to the method as disclosed by Jung-Ha Lee, et. al., “Identification of T-Type α1H Ca^2+ Channels (Cav3.2) in Major Pelvic Ganglion Neurons”. J Neurophysiol 87:2844-2850, 2002.\nas §3\nL-type test: Left ventricle muscle cells were separated from guinea pigs. The cells were used in the experiment in eight hours. The ionic current of a single cell was recorded by applying the whole cell patch-clamp technique at room temperature, wherein the clamp current was −80 mV, and the pulse interval was 10 s. The inward current (the activiation was started from 0 mV) is the L-type calcium current (ICa,L).\nas §4\nThe electrode outer liquid (mM): NaCl 135, CsCl 5.4, CaCl2 1.8, MgCl2 1, Hepes 5, glucose 10, pH7.4."}, "SHRs": {"test_system": "SHRs", "assay": "In vivo hypotensive activity in SHRs, DSI implant-type remote blood pressure measurement", "set-up": "species or system rats", "conditions": "male SHRs, 10 mg/kg po, monitored 24 hours", "method": "The in vivo hypotensive activity assay was conducted according to DSI experimental procedure with reference to page 56 of WO 2009/056934 A1. The agents to be tested, lercanidipine, barnidipine, amlodipine, azelnidipine, efonidipine and manidipine, were accurately weighed. Each agent was dissolved in DMSO. To the resulting solution was added 50% of the corresponding volume of PEG400 so that the final concentration of each agent was 1 mg/ml, and the final concentration of DMSO was 3%. […] Each compound was dissolved in DMSO. […] The compound to be tested, Compound 15, was accurately weighed. This compound was dissolved in DMSO. […] The compound to be tested, Compound 16 (optical activity)+108.34° and Compound 17 (optical activity optical activity)+36.4°, were accurately weighed. […] The test for hypotensive effect: Male SHRs were subjected to an abdominal aorta implantation using an implant, and used in the test after 7-10 days of recovery. The administration was an intragastric administration. One hour before the administration, the measured blood pressure was used as the pre-administration basic blood pressure value. After the administration, SHRs, allowed free access to the diet, were continuously monitored with a DSI implant-type blood pressure remote measurement system for 24 hours."}, "[3]": {"test_system": "SHRs (spontaneous hypertensive rats)", "assay": "In vivo hypotensive activity in SHRs, tail-pinch method", "conditions": "male SHRs, 10 mg/kg po; for Max ΔMAP (mmHg ± SEM): measured 1-24 h after administration", "method": "The in vivo hypotensive activity assay was conducted according to the tail-pinch method with reference to Folia pharmacol. Japon. 97, 115-126 (1991).\nThe agents to be tested, lercanidipine, barnidipine, amlodipine, azelnidipine, efonidipine and manidipine, were accurately weighed respectively. Each agent was dissolved in DMSO. To the resulting solution was added 50% of the corresponding volume of PEG400 so that the final concentration of each agent was 1 mg/ml, and the final concentration of DMSO was 3%.\nThe compounds to be tested, Compound 18, Compound 21, Compound 22, Compound 23, and Compound 26, were accurately weighed respectively. Each compound was dissolved in DMSO. To the resulting solution was added 50% of the corresponding volume of PEG400 so that the final concentration of each compound was 1 mg/ml, and the final concentration of DMSO was 3%.\nThe compounds to be tested, Compound 19 and Compound 20, were accurately weighed respectively. Each compound was suspended in 0.5% MC so that the final concentration of each compound was 1 mg/ml.\nThe test for hypotensive effect: Male SHRs (spontaneous hypertensive rats) were randomly allocated into a control group and an administration group. The administration was an intragastric administration. One hour before the administration, the measured blood pressure was used as the pre-administration basic blood pressure value. After the administration, the contractive pressure, the heart rate and the mean arterial pressure of SHRs at six time points, i.e. 1, 2, 4, 6, 8 and 24 hours after the administration, were measured with a Softron BP-98A non-invasive blood pressure instrument respectively."}}, "note": "Where a name gives a salt, the structure may show the parent alone.", "data": [{"compound": "COC(=O)C1=C(C)NC(C)=C(C(=O)OC2(C)CCN(Cc3ccccc3)C2)C1c1cccc([N+](=O)[O-])c1", "note": "(stereo not drawn) [Compound 1 hydrochloride, 3-(1-benzyl-3-methylpyrrolidin-3-yl) 5-methyl 2,6-dimethyl-4-(3-nitrophenyl)-1,4-dihydropyridine-3,5-dicarboxylate]", "values": [{"measurement": "IC50", "setting": "[1]", "value": 4.47, "unit": "µM"}]}, {"compound": "COC(=O)C1=C(C)NC(C)=C(C(=O)OC2(C)CCN(CCC(c3ccccc3)c3ccccc3)C2)C1c1cccc([N+](=O)[O-])c1", "note": "(stereo not drawn) [Compound 2 hydrochloride, 3-[1-(3,3-diphenylpropyl)-3-methylpyrrolidin-3-yl]5-methyl 2,6-dimethyl-4-(3-nitrophenyl)-1,4-dihydropyridine-3,5-dicarboxylate]", "values": [{"measurement": "IC50", "setting": "[1]", "value": 3.2, "unit": "µM"}]}, {"compound": "COC(=O)C1=C(C)NC(C)=C(C(=O)O[C@@]2(C)CCN(CCC(c3ccccc3)c3ccccc3)C2)[C@H]1c1cccc([N+](=O)[O-])c1", "note": "[Compound 16, (S)-3-[(S)-1-(3,3-diphenylpropyl)-3-methylpyrrolidin-3-yl] 5-methyl 2,6-dimethyl-4-(3-nitrophenyl)-1,4-dihydropyridine-3,5-dicarboxylate]", "values": [{"measurement": "IC50", "setting": "Human Cav3.2", "value": 1.95, "unit": "µM"}, {"measurement": "IC50", "setting": "[2]", "value": 0.59, "unit": "µM"}, {"measurement": "Max ΔMAP (mmHg ± SEM)", "setting": "SHRs", "value": "57 ± 5", "unit": "mmHg"}, {"measurement": "ΔMAP > 20 (mmHg) Duration time of action", "setting": "SHRs", "value": 11, "unit": "h"}, {"measurement": "IC50", "setting": "[1]", "value": 2.28, "unit": "µM"}]}, {"compound": "COC(=O)C1=C(C)NC(C)=C(C(=O)O[C@]2(C)CCN(CCC(c3ccccc3)c3ccccc3)C2)[C@H]1c1cccc([N+](=O)[O-])c1", "note": "[Compound 17, (S)-3-[(R)-1-(3,3-diphenylpropyl)-3-methylpyrrolidin-3-yl] 5-methyl 2,6-dimethyl-4-(3-nitrophenyl)-1,4-dihydropyridine-3,5-dicarboxylate]", "values": [{"measurement": "IC50", "setting": "Human Cav3.2", "value": 9.41, "unit": "µM"}, {"measurement": "IC50", "setting": "[2]", "value": 0.93, "unit": "µM"}, {"measurement": "Max ΔMAP (mmHg ± SEM)", "setting": "SHRs", "value": "57 ± 5", "unit": "mmHg"}, {"measurement": "ΔMAP > 20 (mmHg) Duration time of action", "setting": "SHRs", "value": 16, "unit": "h"}]}, {"compound": "CCOC(=O)C1=C(COCCN)NC(C)=C(C(=O)OC)C1c1ccccc1Cl", "note": "(stereo not drawn) [amlodipine, reference compound]", "values": [{"measurement": "IC50", "setting": "Human Cav3.2", "value": "> 100", "unit": "µM"}, {"measurement": "IC50", "setting": "[2]", "value": 1.11, "unit": "µM"}, {"measurement": "Max ΔMAP (mmHg ± SEM)", "setting": "SHRs", "value": "48 ± 13", "unit": "mmHg"}, {"measurement": "ΔMAP > 20 (mmHg) Duration time of action", "setting": "SHRs", "value": 16, "unit": "h"}, {"measurement": "ΔMAP > 20 (mmHg) Duration time of action", "setting": "[3]", "value": 24, "unit": "h"}, {"measurement": "Max ΔMAP (mmHg ± SEM)", "setting": "[3]", "value": "74 ± 8", "unit": "mmHg"}]}, {"compound": "COC(=O)C1=C(C)NC(C)=C(C(=O)O[C@H]2CCN(Cc3ccccc3)C2)[C@H]1c1cccc([N+](=O)[O-])c1", "note": "[barnidipine, reference compound]", "values": [{"measurement": "IC50", "setting": "Human Cav3.2", "value": 30.8, "unit": "µM"}, {"measurement": "IC50", "setting": "[2]", "value": 0.58, "unit": "µM"}, {"measurement": "Max ΔMAP (mmHg ± SEM)", "setting": "SHRs", "value": "60 ± 6", "unit": "mmHg"}, {"measurement": "ΔMAP > 20 (mmHg) Duration time of action", "setting": "SHRs", "value": 9, "unit": "h"}, {"measurement": "ΔMAP > 20 (mmHg) Duration time of action", "setting": "[3]", "value": 14, "unit": "h"}, {"measurement": "Max ΔMAP (mmHg ± SEM)", "setting": "[3]", "value": "81 ± 10", "unit": "mmHg"}, {"measurement": "IC50", "setting": "[1]", "value": 8.15, "unit": "µM"}]}, {"compound": "COC(=O)C1=C(C)NC(C)=C(C(=O)OC(C)(C)CN(C)CCC(c2ccccc2)c2ccccc2)C1c1cccc([N+](=O)[O-])c1", "note": "(stereo not drawn) [lercanidipine, reference compound]", "values": [{"measurement": "IC50", "setting": "[2]", "value": 0.84, "unit": "µM"}, {"measurement": "Max ΔMAP (mmHg ± SEM)", "setting": "SHRs", "value": "54 ± 7", "unit": "mmHg"}, {"measurement": "ΔMAP > 20 (mmHg) Duration time of action", "setting": "SHRs", "value": 14, "unit": "h"}, {"measurement": "ΔMAP > 20 (mmHg) Duration time of action", "setting": "[3]", "value": 23, "unit": "h"}, {"measurement": "Max ΔMAP (mmHg ± SEM)", "setting": "[3]", "value": "77 ± 15", "unit": "mmHg"}, {"measurement": "IC50", "setting": "[1]", "value": "> 10", "unit": "µM"}]}]}
